Reference: publication PMC9699072 (Molecules, 2022)
“And” between values parts separate entries of the source, which are not always exact repeats. Equal entries are not always repeated.

Key:
Type in all cases: biochemical
[1] = FRAP (ferric reducing antioxidant power) assay; conditions: mean ± SEM, n = 3; 1 h, 37 °C, pH 3.6
Procedure: The FRAP (ferric reducing antioxidant power) assay measures the ability of antioxidants to reduce the ferric 2,4,6-tripyridyl-s-triazine complex [Fe(TPTZ)2]^3+ to the intensely blue ferrous complex [Fe(TPTZ)2]^2+ in an acidic medium. The measurements were performed as previously described in detail. The results are expressed as TE (Trolox equivalents).
The FRAP (ferric reducing antioxidant power) assay measures the ability of antioxidants to reduce the ferric 2,4,6-tripyridyl-s-triazine complex [Fe (TPTZ)2]^3+ to the intensely blue ferrous complex [Fe (TPTZ)2]^2+ (λ = 593 nm) in acidic medium. 2,4,6-Tris(pyridin-2-yl)-1,3,5-triazine (TPTZ), FeCl3·6H2O, Trolox, quercetin and DMSO were obtained from Sigma-Aldrich Chemical Co. (St. Louis, MO, USA). The FRAP reagent contained 2.5 mL of 10 mM TPTZ solution in 40 mM HCl, 2.5 mL of 20 mM FeCl3·6H2O water solution, and 25 mL of 0.3 M acetate buffer (pH 3.6). Aliquots of 10 µL of the test compound solution in DMSO (0.5 mM) were mixed with 240 µL of FRAP reagent, and the absorbance of the mixture was measured spectrophotometrically (FLUOStar OPTIMA microplate spectrophotometer (BMG Labtech, Ortenberg, Germany)) at 600 nm after 1 h incubation at 37 °C against a blank. Trolox was used as a reference compound. Quercetin was used as a positive control. A calibration curve with linear formula y = 0.03x (R^2 = 0.998, p < 0.0001) was prepared for Trolox solutions in DMSO at a range of 2.5–100 µM, and the results are expressed as Trolox equivalents (TE), the values calculated as the ratio of the concentrations of Trolox and the test compound, resulting in the same effect.

[2] = ABTS radical cation scavenging (decolorization) assay; conditions: mean ± SEM, n = 3; for ABTS TEAC (Trolox equivalent antioxidant capacity): 1 h incubation, relative to Trolox; for IC50: 1 h, read-out: ABTS IC50 (compound concentration required for 50% reduction of the ABTS radical-cation) (converted)
Procedure: The ABTS assay is based on the direct quenching of the ABTS cation radical (ABTS^•+) by antioxidants. The assay is carried out by spectrophotometric determination of a decrease in absorbance of a stable dark green ABTS^•+ solution after its interaction with an antioxidant compound [56]. The measurements were performed as previously described in detail. The results are expressed as TEAC values (Trolox equivalent antioxidant capacity) and IC50 values (compound concentration required for 50% reduction of the ABTS radical).
Radical scavenging activity of the compounds was assessed using the ABTS radical cation (ABTS^•+) decolorization assay with some modifications. ABTS (2,2′-azinobis-(3-ethylbenzothiazoline-6-sulfonic acid)) was purchased from Tokyo Chemical Industry Co., Ltd. (Tokyo, Japan), and potassium persulfate (dipotassium peroxodisulfate), Trolox (6-hydroxy-2,5,7,8-tetramethylchroman-2-carboxylic acid), and HPLC-grade ethanol and DMSO were obtained from Sigma-Aldrich (Saint Louis, MO, USA). Aqueous solutions were prepared using deionized water. All test compounds were dissolved in DMSO.
The solution of cation radical ABTS^•+ was produced by incubation of an aqueous solution of 7 mM ABTS and 2.45 mM potassium persulfate solution in equal quantities for 12–16 h at room temperature in the dark. Radical scavenging capacity of the compounds was analyzed by mixing 10 μL of compound with 240 μL of ABTS^•+ working solution in ethanol (100 μM final concentration). Data were given for 1 h of incubation of compounds with ABTS^•+. The reduction in absorbance was measured spectrophotometrically at 734 nm using an xMark microplate UV/VIS microplate spectrophotometer (Bio-Rad, Hercules, CA, USA).
Ethanol blanks were run in each assay. Values were obtained from three replicates of each sample and three independent experiments.
Standard antioxidant Trolox was used as a reference compound. Antioxidant capacity as Trolox equivalent (TEAC) values was determined as the ratio between the slopes obtained from the linear correlation of the ABTS radical absorbance with the concentrations of tested compounds and Trolox. Quercetin was used as a positive control. For the test compounds that reduced ABTS^•+ absorbance by more than 60% at 100 µM, we also determined the IC50 values (the compound concentration required for a 50% reduction of the ABTS radical). The compounds were tested in the concentration range of 0.5–400 µM.

porcine liver CES = experiment: Inhibition of CES (4-nitrophenol acetate hydrolysis); conditions: 20 μM, ± SEM, n = 3, 10 min incubation 25 °C
Excerpt: (§1) Given the available literature data on the ability of pyrazole derivatives to inhibit acetylcholinesterase (AChE) and human carboxylesterase-1 (CES), we performed an investigation of the esterase profile for new compounds 1a–j and 4a–j, including an evaluation of their inhibitory effect on the standard enzymes set: human erythrocyte AChE, equine serum butyrylcholinesterase (BChE), and porcine liver CES (Table 2). The applicability of this set of enzymes was shown by us earlier.
(§2) Human erythrocyte acetylcholinesterase (AChE, EC 3.1.1.7), equine serum butyrylcholinesterase (BChE, EC 3.1.1.8), porcine liver carboxylesterase (CES, EC 3.1.1.1), acetylthiocholine iodide (ATCh), butyrylthiocholine iodide (BTCh), 4-nitrophenol acetate (4-NPA), and 5,5′-dithio-bis-(2-nitrobenzoic acid) (DTNB) were purchased from Sigma-Aldrich (Saint Louis, MO, USA).
(§3) All the kinetic experiments were performed under standard conditions, according to the protocol of IPAC RAS for a reversible inhibitors study.
(§4) Ellman’s colorimetric assay was used to measure AChE and BChE activity in 0.1 M K/Na phosphate buffer at pH 7.5, 25 °C [86]. Final concentrations of reactants were 0.33 mM DTNB, 0.02 unit/mL of AChE or BChE, and 1 mM of substrate (ATCh or BTCh, respectively). Reagent blanks consisted of reaction mixtures without enzyme to assess non-enzymatic hydrolysis of substrates. Porcine liver CES activity was assessed colorimetrically in 0.1 M K/Na phosphate buffer with pH 8.0 at 25 °C, by measuring the absorbance of 4-nitrophenol at 405 nm. Final enzyme and substrate (4-NPA) concentrations were 0.02 unit/mL and 1 mM, respectively. Reagent blanks included all constituents except enzyme.
(§5) Test compounds were dissolved in DMSO. Reaction mixtures contained a final DMSO concentration of 2% (v/v). Enzyme inhibition was first assessed at a single concentration of 20 µM for each compound after a 10 min incubation at 25 °C in three separate experiments. Compounds inhibiting the enzyme by more than 30% were then selected for determination of the IC50 (inhibitor concentration resulting in 50% inhibition of control enzyme activity). […] Substrate was then added, and residual enzyme activity relative to an inhibitor-free control was measured using a FLUOStar Optima microplate reader (LabTech, Ortenberg, Germany).

[3] = biological target: T1, equine serum butyrylcholinesterase (BChE) (Equus caballus, UniProt P81908); experiment: Inhibition of BChE (Ellman's colorimetric assay); conditions: ± SEM, n = 3, 10 min incubation 25 °C
T1 construct: equine serum butyrylcholinesterase (BChE, EC 3.1.1.8); purchased Sigma-Aldrich (Saint Louis, MO, USA); host or cells: equine serum
T1 sequence (P81908 whole entry): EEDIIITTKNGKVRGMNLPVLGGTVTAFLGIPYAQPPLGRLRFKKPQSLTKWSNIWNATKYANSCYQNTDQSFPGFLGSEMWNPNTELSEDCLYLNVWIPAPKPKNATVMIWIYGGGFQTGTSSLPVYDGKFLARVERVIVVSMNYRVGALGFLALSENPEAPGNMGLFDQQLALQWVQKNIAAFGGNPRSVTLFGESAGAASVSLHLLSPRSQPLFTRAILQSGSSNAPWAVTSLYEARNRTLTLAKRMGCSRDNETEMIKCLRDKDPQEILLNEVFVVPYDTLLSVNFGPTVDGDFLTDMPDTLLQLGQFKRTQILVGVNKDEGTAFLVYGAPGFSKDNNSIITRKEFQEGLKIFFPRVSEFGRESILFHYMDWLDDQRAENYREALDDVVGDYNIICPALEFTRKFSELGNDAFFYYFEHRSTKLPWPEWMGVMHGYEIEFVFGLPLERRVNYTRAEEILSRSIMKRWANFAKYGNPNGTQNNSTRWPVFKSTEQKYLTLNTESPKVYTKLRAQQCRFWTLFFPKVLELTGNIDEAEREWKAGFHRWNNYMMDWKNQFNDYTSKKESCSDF
Excerpt: as §1, §2, §3, §4, §5

human erythrocyte AChE = biological target: T2, human erythrocyte AChE (Homo sapiens, UniProt P22303); experiment: Inhibition of AChE (Ellman's colorimetric assay); conditions: read-out: AChE % inhibition at 20 μM
T2 construct: Human erythrocyte acetylcholinesterase (AChE, EC 3.1.1.7); purchased Sigma-Aldrich (Saint Louis, MO, USA); host or cells: human erythrocytes
T2 sequence (P22303 32-617 isoform P22303-2 limits assumed): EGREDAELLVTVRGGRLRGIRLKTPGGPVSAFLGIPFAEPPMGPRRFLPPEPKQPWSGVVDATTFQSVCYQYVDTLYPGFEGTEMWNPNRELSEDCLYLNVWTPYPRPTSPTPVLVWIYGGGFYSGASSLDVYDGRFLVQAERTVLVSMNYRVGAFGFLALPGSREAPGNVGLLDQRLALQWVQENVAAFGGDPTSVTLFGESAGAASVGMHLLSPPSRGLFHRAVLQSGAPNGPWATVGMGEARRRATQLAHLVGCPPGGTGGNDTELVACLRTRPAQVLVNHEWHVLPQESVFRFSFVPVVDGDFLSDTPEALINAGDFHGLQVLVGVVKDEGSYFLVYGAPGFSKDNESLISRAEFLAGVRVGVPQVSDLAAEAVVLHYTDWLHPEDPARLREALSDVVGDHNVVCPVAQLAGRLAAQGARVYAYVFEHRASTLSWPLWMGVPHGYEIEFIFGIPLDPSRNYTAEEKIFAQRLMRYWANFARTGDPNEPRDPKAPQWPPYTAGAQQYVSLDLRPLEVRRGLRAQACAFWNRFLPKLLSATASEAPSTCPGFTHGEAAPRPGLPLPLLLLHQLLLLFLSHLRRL
Excerpt: as §1, §2, §3, §4, §5

[4] = ORAC-FL (oxygen radical absorbance capacity) assay; conditions: mean ± SEM, n = 3; 2 h; 10 μM compound and Trolox
Excerpt: In the oxygen radical absorbance capacity (ORAC-FL) assay, 2,2′-azobis-(2-methylpropionamidine) dihydrochloride (AAPH) is used as a free peroxyl radical generator, and fluorescein (FL) is used as a fluorescent probe. The method is based on measuring the decrease in the intensity of fluorescence with time, which characterizes the degree of decay of the fluorescent probe under the influence of peroxyl radicals. In the presence of antioxidants, the degree of decay of the fluorescent probe decreases and, accordingly, the fluorescence intensity increases. The results are expressed as TE (Trolox equivalents).
The ORAC assay utilizes a biologically relevant radical source, 2,2′-azobis(2-amidinopropane) dihydrochloride (AAPH)-derived peroxyl radicals. Thus, it is a more physiologically relevant assay than ABTS and FRAP.
The oxygen radical absorbance capacity (ORAC) was determined by the ability of compounds to protect fluorescein (FL) from peroxyl radicals that are generated by AAPH according to the known method with minor variations. The reaction was carried out at 37 °C in black 96-well plates (SPL life sciences), and the final volume of the reaction mixture was 200 µL per well. The fluorescence was recorded by Tecan M1000 PRO microplate reader (Switzerland) at 485 nm excitation and 520 nm emission.
The 0.7 mM fluorescein sodium salt stock solution in PBS pH 7.4 (137 mM sodium chloride, 2.7 mM potassium chloride, and 10 mM phosphate buffer) was prepared and stored at 4–5 °C no longer than one month. An aliquot of the fluorescein stock solution was further diluted with PBS immediately before each assay to yield a 70 nM working solution. The 133 mM AAPH solution in PBS was prepared immediately before use. The test compounds and Trolox standard were dissolved in DMSO to 400 μM. The final concentration was 10 μM for all of the samples.
The blank was composed of 15 μL PBS pH 7.4, 5 μL DMSO (final concentration: 2.5% (v/v)), 120 μL FL, and 60 μL AAPH, and it was included in each assay. PBS pH 7.4 (15 μL), antioxidant (the test compound or Trolox, 5 μL), and FL (120 μL, final concentration: 42 nM) solutions were placed in a black 96-well microplate and were pre-incubated for 15 min at 37 °C. AAPH solution (60 μL, final concentration 40 mM) was then added rapidly using a multichannel pipette. The fluorescence was recorded every minute for 2 h. A Trolox standard curve was also obtained in each assay. All reactions were carried out in quadruplicate, and two to four independent assays were performed for each sample.
Antioxidant curves (fluorescence vs. time) were first normalized to the curve of the blank (without antioxidant) corresponding to the same assay, and the net AUC corresponding to a sample was calculated by subtracting the AUC corresponding to the blank. The ORAC value was obtained by dividing the latter curve by the Trolox curve obtained in the same assay at 10 μM concentrations of compounds and Trolox. Final ORAC values, Trolox equivalents (TE), were expressed as μmol test compounds per μmol Trolox, where the value of TE for Trolox was taken as 1. Data were expressed as means ± SEM.

Row | SMILES | FRAP TE (Trolox equivalent) [1] [TE] | ABTS TEAC (Trolox equivalent antioxidant capacity) [2] | CES % inhibition at 20 μM (porcine liver CES) [%] | inhibition at 20 µM [3] [%] | inhibition at 20 µM (human erythrocyte AChE) [%] | IC50 [2] [µM] | ORAC-FL TE (Trolox equivalent) [4]
1 | O=C1/C(=N\O)C(C(F)(F)C(F)(F)F)=NN1c1ccccc1 [1b] | 0.06 ± 0.01 | 0.03 ± 0.002 (n.d.) TEAC | 8.2 ± 1.3 | 16.1 ± 1.4 | 11.9 ± 0.9 |  | 
2 | Cl.Nc1c(C(F)(F)C(F)F)n[nH]c1O.O [4f, 4-Amino-3-(1,1,2,2-tetrafluoroethyl)-1H-pyrazol-5-ol hydrate hydrochloride] | 0.62 ± 0.01 | 0.50 ± 0.02 TEAC | 17.5 ± 1.4 |  | 17.3 ± 1.5 | 33.2 | 
3 | O=C1NN=C(C(F)(F)C(F)F)/C1=N/O [1f] |  | 0.15 ± 0.007 (n.d.) TEAC | 3.5 ± 0.9 | 4.7 ± 1 | 6.8 ± 1.2 |  | 
4 | O=C1/C(=N\O)C(C(F)(F)F)=NN1c1ccccc1 [1a] |  | 0.035 ± 0.002 (n.d.) TEAC |  |  |  |  | 
5 | CC1=NN(c2ccccc2)C(=O)/C1=N\O [1d] |  | 0.16 ± 0.02 (n.d.) TEAC |  | 6.6 ± 1.3 | 4.9 ± 1.3 |  | 1.07 TE and 1.07 ± 0.17 TE
6 | O=c1c(O)c(-c2ccc(O)c(O)c2)oc2cc(O)cc(O)c12 [Quercetin, reference compound] | 4.99 ± 0.02 | 1.20 ± 0.11 TEAC |  |  |  | 13.8 | 5.41 ± 0.08 TE
7 | O=C1NN=C(C(F)(F)C(F)(F)C(F)(F)C(F)(F)F)/C1=N/O [1i] |  | 0.2 ± 0.01 (n.d.) TEAC |  |  |  |  | 2.41 ± 0.08 TE
8 | O=C1/C(=N\O)C(C(F)(F)C(F)(F)C(F)(F)C(F)(F)F)=NN1c1ccccc1 [1c] | 0.06 ± 0.01 | 0.04 ± 0.004 (n.d.) TEAC | 7.8 ± 1.4 | 5.3 ± 1 | 11.5 ± 1.8 |  | 
9 | O=C1NN=C(C(F)(F)C(F)(F)C(F)(F)F)/C1=N/O [1h] |  | 0.19 ± 0.008 (n.d.) TEAC | 6.6 ± 1.4 |  | 5.3 ± 1.3 |  | 2.37 ± 0.09 TE
